{"source": "patent US12168650B2", "about": "“Crystalline forms of 3-(5-(2-hydroxy-2-methylpropoxy)-6-methylpyrazin-2-yl)-1H-indole-7-carbonitrile” (NIDO BIOSCIENCES, INC., priority 2022, dated 2024)", "key": {"[1]": {"assay": "Interconversion of polymorphs (heating, dehydration, humidity, equilibration)", "type": "physicochemical", "source_text": "In total, 15 forms were identified to be polymorphs or pseudo-polymorphs of the free form, including seven anhydrates, Forms A, C, H, J, K. L and O; four hydrates, Forms B, F, M and N; and three solvates, Forms D, E and I. In addition, a metastable form, Form G, and an amorphous form were also obtained.\nThe interconversion relation of polymorphs identified is outlined in FIG. 5."}, "[2]": {"assay": "Competitive equilibration experiments of anhydrates", "conditions": "at both 25° C. and 50° C.", "quoted_text": "Relative stability of the anhydrate Forms A, C, H and J was investigated with competitive equilibration experiments.\nRelative stability of the anhydrates Forms C, K and L was investigated with competitive equilibration experiments.\nTo determine relative stability of anhydrates, competitive equilibration experiments were conducted in different solvent systems.\nAbout 2 mg of each anhydrate was added to 0.3-0.4 mL saturated solutions of selected solvents. Obtained suspensions were stirred at 25° C. for 3-10 days, respectively. Solid parts (wet cakes) were isolated by centrifugation filtration and investigated by XRPD."}, "[3]": {"test_system": "LNCaP cells expressing ARR2PB-FireflyLuc and CMV-RenillaLuc", "assay": "LNCaP ARR2PB-FireflyLuc reporter assay", "type": "cell-based", "conditions": "Homo sapiens, +/−0.5 nM DHT, 48 h at 37° C.", "description": "LNCaP cells expressing ARR2PB-FireflyLuc and CMV-RenillaLuc were treated with indicated concentrations of the test compound, enzalutamide (negative control), or DHT (positive control)+/−0.5 nM DHT for 48 h at 37° C. […] signals were read with the ImageXpress Micro Confocal System. Remaining activity (antagonist mode) was calculated as % Remaining Activity=100×[(Readsample−LCave)/(HCave−LCave)] where HC is cells treated with 0.5 nM DHT only and LC is cells treated with 10 uM enzalutamide+0.5 nM DHT. Activation (agonist mode) was calculated as % Activation=100×[(ReadSample−LCave)/(HCave−LCave)] where HC is cells treated with 1 uM DHT and LC is cells treated with DMSO. Dose response curves and IC50 values were calculated using non-linear regression analysis in XLfit."}, "[4]": {"assay": "Solution state chemical stability", "type": "physicochemical", "conditions": "for Purity: ~10 mg/ml", "description": "The solution state chemical stability was carried out in acetone, MEK, and 2-MeTHF solvent systems at 50° C. and 55° C. […] The purity of the compound degraded from 99.43% to 98.27% after 48 h holding at 55° C. in MEK solvent system.\n2-MeTHF/n-hep was selected as the potential solvent system for the crystallization. The solution state chemical stability was carried out in 2-MeTHF solvent systems at higher temperature (60° C. and 70° C.)."}}, "note": "Several values for one entry are separate records, joined by “and”; a condition that tells them apart may be missing. Equal entries are not always repeated."}
{"molecule": "Cc1nc(-c2c[nH]c3c(C#N)cccc23)cnc1OCC(C)(C)O", "note": "[Form E, 3-(5-(2-hydroxy-2-methylpropoxy)-6-methylpyrazin-2-yl)-1H-indole-7-carbonitrile]", "values": [{"measurement": "Form conversion", "setting": "[1]; after heating to 100° C. by TGA and cooled to room temperature", "result": "converts to physical mixture of Form F and Form G"}]}
{"molecule": "Cc1nc(-c2c[nH]c3c(C#N)cccc23)cnc1OCC(C)(C)O", "note": "[Form K, 3-(5-(2-hydroxy-2-methylpropoxy)-6-methylpyrazin-2-yl)-1H-indole-7-carbonitrile]", "values": [{"measurement": "Form conversion", "setting": "[1]; after melting and re-crystallization (DSC, VT-XRPD)", "result": "converts to Form L"}, {"measurement": "Form conversion", "setting": "[1]; exposure to 25° C. in 40-70% RH for 6 days", "result": "reverts back to Form B"}, {"measurement": "Form conversion", "setting": "[1]; exposure to 25° C./92% RH for 6 days", "result": "converts to hydrate Form B"}]}
{"molecule": "Cc1nc(-c2c[nH]c3c(C#N)cccc23)cnc1OCC(C)(C)O", "note": "[Form D, 3-(5-(2-hydroxy-2-methylpropoxy)-6-methylpyrazin-2-yl)-1H-indole-7-carbonitrile]", "values": [{"measurement": "Form conversion", "setting": "[1]; after desolvation", "result": "converts to Form C"}]}
{"molecule": "Cc1nc(-c2c[nH]c3c(C#N)cccc23)cnc1OCC(C)(C)O", "note": "[Form G, 3-(5-(2-hydroxy-2-methylpropoxy)-6-methylpyrazin-2-yl)-1H-indole-7-carbonitrile]", "values": [{"measurement": "Form conversion", "setting": "[1]; equilibration in DMSO/water system at 25° C. for 6 days", "result": "converts to anhydrate Form H"}]}
{"molecule": "Cc1nc(-c2c[nH]c3c(C#N)cccc23)cnc1OCC(C)(C)O", "note": "[Form B, 3-(5-(2-hydroxy-2-methylpropoxy)-6-methylpyrazin-2-yl)-1H-indole-7-carbonitrile]", "values": [{"measurement": "Form conversion", "setting": "[1]; after dehydration", "result": "converts to Form K"}]}
{"molecule": "Cc1nc(-c2c[nH]c3c(C#N)cccc23)cnc1OCC(C)(C)O", "note": "[Form I, 3-(5-(2-hydroxy-2-methylpropoxy)-6-methylpyrazin-2-yl)-1H-indole-7-carbonitrile]", "values": [{"measurement": "Form conversion", "setting": "[1]; after heating to 140° C. by TGA and cooled to room temperature", "result": "converted to physical mixture of Form C, Form N and an unknown peak"}]}
{"molecule": "Cc1nc(-c2c[nH]c3c(C#N)cccc23)cnc1OCC(C)(C)O", "note": "[Form M, 3-(5-(2-hydroxy-2-methylpropoxy)-6-methylpyrazin-2-yl)-1H-indole-7-carbonitrile]", "values": [{"measurement": "Form conversion", "setting": "[1]; equilibration in MeOH at 25° C. for another 1 day", "result": "converts to Form B"}, {"measurement": "Form conversion", "setting": "[1]; wet cake from methanol, once exposed to the air", "result": "converted to Form B"}]}
{"molecule": "Cc1nc(-c2c[nH]c3c(C#N)cccc23)cnc1OCC(C)(C)O", "note": "[amorphous form, 3-(5-(2-hydroxy-2-methylpropoxy)-6-methylpyrazin-2-yl)-1H-indole-7-carbonitrile]", "values": [{"measurement": "Form conversion", "setting": "[1]; after exposure to high humidity", "result": "crystallized to Form N"}]}
{"molecule": "Cc1nc(-c2c[nH]c3c(C#N)cccc23)cnc1OCC(C)(C)O", "note": "[Form A, 3-(5-(2-hydroxy-2-methylpropoxy)-6-methylpyrazin-2-yl)-1H-indole-7-carbonitrile]", "values": [{"measurement": "Relative thermodynamic stability of anhydrates", "setting": "[2]", "result": "converts to Form C"}]}
{"molecule": "Cc1nc(-c2c[nH]c3c(C#N)cccc23)cnc1OCC(C)(C)O", "note": "[3-(5-(2-hydroxy-2-methylpropoxy)-6-methylpyrazin-2-yl)-1H-indole-7-carbonitrile]", "values": [{"measurement": "IC50", "setting": "[3]", "result": 0.05, "unit": "µM"}, {"measurement": "Purity", "setting": "[4]; 2-MeTHF, 55° C., 0 h", "result": 99.35, "unit": "% a %"}, {"measurement": "Purity", "setting": "[4]; 2-MeTHF, 55° C., 6 h", "result": 99.55, "unit": "% a %"}, {"measurement": "Purity", "setting": "[4]; 2-MeTHF, 55° C., 24 h", "result": 99.62, "unit": "% a %"}, {"measurement": "Purity", "setting": "[4]; 2-MeTHF, 55° C., 48 h", "result": 99.62, "unit": "% a %"}, {"measurement": "Purity", "setting": "[4]; 2-MeTHF, 60° C., 0 h", "result": 99.54, "unit": "% a %"}, {"measurement": "Purity", "setting": "[4]; 2-MeTHF, 60° C., 24 h", "result": 99.69, "unit": "% a %"}, {"measurement": "Purity", "setting": "[4]; 2-MeTHF, 60° C., 48 h", "result": 99.56, "unit": "% a %"}, {"measurement": "Purity", "setting": "[4]; 2-MeTHF, 70° C., 0 h", "result": 99.53, "unit": "% a %"}, {"measurement": "Purity", "setting": "[4]; 2-MeTHF, 70° C., 24 h", "result": 99.70, "unit": "% a %"}, {"measurement": "Purity", "setting": "[4]; 2-MeTHF, 70° C., 48 h", "result": 99.44, "unit": "% a %"}, {"measurement": "Purity", "setting": "[4]; 2-MeTHF/n-hep = 1 v/1 v, 70° C., 0 h", "result": 98.45, "unit": "% a %"}, {"measurement": "Purity", "setting": "[4]; 2-MeTHF/n-hep = 1 v/1 v, 70° C., 24 h", "result": 98.44, "unit": "% a %"}, {"measurement": "Purity", "setting": "[4]; 2-MeTHF/n-hep = 1 v/1 v, 70° C., 48 h", "result": 98.44, "unit": "% a %"}, {"measurement": "Purity", "setting": "[4]; Acetone, 50° C., 0 h", "result": 99.54, "unit": "% a %"}, {"measurement": "Purity", "setting": "[4]; Acetone, 50° C., 6 h", "result": 99.50, "unit": "% a %"}, {"measurement": "Purity", "setting": "[4]; Acetone, 50° C., 24 h", "result": 99.51, "unit": "% a %"}, {"measurement": "Purity", "setting": "[4]; Acetone, 50° C., 48 h", "result": 99.69, "unit": "% a %"}, {"measurement": "Purity", "setting": "[4]; MEK, 55° C., 0 h", "result": "99.43 a % and 99.43% a %"}, {"measurement": "Purity", "setting": "[4]; MEK, 55° C., 6 h", "result": 99.23, "unit": "% a %"}, {"measurement": "Purity", "setting": "[4]; MEK, 55° C., 24 h", "result": 98.54, "unit": "% a %"}, {"measurement": "Purity", "setting": "[4]; MEK, 55° C., 48 h", "result": "98.27 a % and 98.27% a %"}, {"measurement": "Solution state chemical stability", "setting": "[4]; after 48 h holding in 2-MeTHF at 60° C. and 70° C.", "result": "stable"}, {"measurement": "Solution state chemical stability", "setting": "[4]; after 48 h holding in 2-MeTHF/n-hep=1v/1v at 70° C.", "result": "stable"}, {"measurement": "Solution state chemical stability", "setting": "[4]; after 48 h holding in both acetone and 2-MeTHF systems (50° C. and 55° C.)", "result": "stable"}]}
